Target: T1, MC2R (Homo sapiens, UniProt Q01718)
T1 construct: purchased Promega (in-house HiBiT-GPCR construct library, NanoBRET)
Assay: NanoBRET screen HiBiT-MC2R in HEK293
Assay type: binding
Method: Each tracer candidate was screened across the entire library of HiBiT-GPCR constructs using NanoBRET as the detection modality. As depicted in Figure 4A, the specificity of interactions was evaluated through decrease in BRET due to competitive displacement of a bound tracer by excess parental compound. Each tracer was analyzed for binding to each HiBiT-GPCR fusion in the absence and in the presence of competing parental compound. Briefly, HEK293 cells were transfected with HiBiT-GPCR constructs diluted into promoterless DNA to reduce expression and maximize translocation to the cell surface. Each tracer candidate was then screened at concentrations of 1 μM and 0.1 μM across cells expressing these fusions. Cells were treated for 1.5 h with tracer either alone or in the presence of 20 μM competing parental compound (i.e., control). BRET was measured upon addition of purified LgBiT and subsequent complementation with HiBiT genetically fused to a GPCR. The specificity of interactions was assessed through a decrease in BRET signal due to competitive displacement of the bound tracer. To further gauge the robustness of these interactions, the fold response over the control (i.e., BRETtracer/BRETcontrol) was calculated. We chose a 1.5-fold response, which translates to ≥7-fold signal over noise as the minimal threshold required to score an interaction as positive.
HiBiT-GPCR DNA constructs were diluted in 10 mM Tris pH 8 to a final concentration of 0.01 μg/μL, arrayed in 96-well plates and stored at −20 °C. For transfection, HEK293 cells were suspended in Opti-MEM (without phenol red) supplemented with 2% fetal bovine serum (Seradigm) and 100 units/mL penicillin–streptomycin (Gibco) at a final concentration of 220,000 cells/mL and dispensed into white 96-well plates at 90 μL/well. Subsequent transfections and screens were carried using an Agilent Bravo Automated Liquid Handling Platform. First, the 96-well HiBiT DNA arrays were diluted 25-fold in Opti-MEM (without serum or phenol red) to a final concentration of 0.0004 μg/μL and 20 μL of the diluted DNAs were transferred into new 96-well plates. Next, promoterless carrier DNA (1 μg/μL) was diluted 25-fold (0.04 μg/μL) and then dispensed into the diluted arrays at 20 μL/well. Following brief mixing, Viafect transfection reagent (Promega) diluted 16-fold into Opti-MEM was dispensed into the plates at 40 μL/well. After mixing by pipetting, plates were incubated for 10 min on the pipetting station deck. The DNA-transfection reagent complexes were then added to plates containing cells. To facilitate the screen, 10 μL of DNA-transfection reagent complexes were added in duplicates to the top 4 and bottom 4 rows, resulting in two identical 48-well arrays per plate. Plates with transfected cells were incubated for 18–20 h at 37 °C/5% CO2. A screen of each tracer across the entire library using two different concentrations requires duplicate plates of transfected cells. Depending on the number of tracers being screened, transfections can be scaled up using the same ratios. The next day, for each tracer, four 20× screening solutions in tracer dilution buffer (Promega) were prepared: two duplicates at final concentration of 20 μM and two duplicates at a final concentration of 2 μM. […] The four resulting solutions were diluted 4-fold in Opti-MEM without serum or phenol red to generate 5× solutions (5 µM and 0.5 µM tracer +/− 100 μM competing compound). To screen the library, a BioTek MultiFlo FX liquid dispenser was used to dispense 22.5 µL of tracer solution to the top 4 rows and 22.5 µL tracer + competing compound solution to the 4 bottom rows. Plates were briefly mixed on an orbital shaker and incubated for 1.5 h at room temperature. […] Plates were briefly mixed on an orbital shaker and incubated for 15 min to allow complementation.

T1 sequence (Q01718 whole entry): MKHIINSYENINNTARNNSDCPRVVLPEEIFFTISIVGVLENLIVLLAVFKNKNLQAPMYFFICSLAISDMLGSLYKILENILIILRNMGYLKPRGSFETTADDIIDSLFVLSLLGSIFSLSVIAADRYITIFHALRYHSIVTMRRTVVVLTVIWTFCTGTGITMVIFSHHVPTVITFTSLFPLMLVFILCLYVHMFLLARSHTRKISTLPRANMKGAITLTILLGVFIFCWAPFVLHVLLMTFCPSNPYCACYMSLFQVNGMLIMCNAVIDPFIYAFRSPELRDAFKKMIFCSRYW

Row | SMILES | NanoBRET Fold Response (MC2R, tracer 0.1μM) | NanoBRET Fold Response (MC2R, tracer 1μM) | also measured
1 | O=C(CCc1ccc2n1[B-](F)(F)[N+]1=C(c3ccc[nH]3)C=CC1=C2)NCc1ccc(C(=O)NCCOCCC(=O)N[C@@H]2CC[C@@]3(O)[C@H]4Cc5ccc(O)c6c5[C@@]3(CCN4CC3CC3)[C@H]2O6)cc1 [Naltrexone-3-NB590] | 0.75 | 1.15 | 
2 | CN1CCN(C2=Nc3cc(Cl)ccc3N(CC(=O)NCCOCCOCCOCCOCCNC(=O)CCc3ccc4n3[B-](F)(F)[N+]3=C(c5ccc[nH]5)C=CC3=C4)c3ccccc32)CC1 [Clozapine-c-2-NB590] |  |  | NanoBRET Fold Response (MC2R, 0.1μM tracer): 0.99; NanoBRET Fold Response (MC2R, 1μM tracer): 1.11
3 | O=C(CCOCCOCCOCCOCCNC(=O)CCc1ccc2n1[B-](F)(F)[N+]1=C(c3ccc[nH]3)C=CC1=C2)NCCCN1CCN(C2=Nc3cc(Cl)ccc3Nc3ccccc32)CC1 [Clozapine-a-2-NB590] |  |  | NanoBRET Fold Response (MC2R, 0.1μM tracer): 0.97; NanoBRET Fold Response (MC2R, 1μM tracer): 0.97
4 | CCOC(=O)c1cc(C#N)c(N2CCC(C(=O)NS(=O)(=O)Cc3ccccc3/C=C/C(=O)NCCNC(=O)CCc3ccc4n3[B-](F)(F)[N+]3=C(c5ccc[nH]5)C=CC3=C4)CC2)nc1C [AZD1283-1-NB590] |  |  | NanoBRET Fold Response (MC2R, 0.1μM): 0.94; NanoBRET Fold Response (MC2R, 1μM): 1.02
5 | COc1ccc2[nH]c(-c3ccc(CNC(=O)CCOCCOCCOCCOCCNC(=O)CCc4ccc5n4[B-](F)(F)[N+]4=C(c6ccc[nH]6)C=CC4=C5)cc3)c(CCNC(C)=O)c2n1 [AzomelatoninICO9-2-NB590] |  |  | NanoBRET Fold Response (0.1μM tracer): 0.93; NanoBRET Fold Response (1μM tracer): 1.16
6 | CCCn1c(=O)c2[nH]c(-c3ccc(OCC(=O)NCCNC(=O)CCOCCNC(=O)c4ccc(CNC(=O)CCc5ccc6n5[B-](F)(F)[N+]5=C(c7ccc[nH]7)C=CC5=C6)cc4)cc3)nc2n(CCC)c1=O [XAC-3-NB590] | 1.02 | 1.05 | 
7 | COc1ccccc1N1CCN(CCCCN2C(=O)c3ccc(CNC(=O)CCOCCNC(=O)c4ccc(CNC(=O)CCc5ccc6n5[B-](F)(F)[N+]5=C(c7ccc[nH]7)C=CC5=C6)cc4)cc3C2=O)CC1 [NAN-190-3-NB590] | 1.02 | 0.96 | 
8 | O=C(CCc1ccc2n1[B-](F)(F)[N+]1=C(c3ccc[nH]3)C=CC1=C2)NCc1ccc(C(=O)NCCOCCOCCNCC(O)COc2cccc3ccccc23)cc1 (stereo not drawn) [Propranolol-3-NB590] |  |  | NanoBRET Fold Response (MC2R, 1μM): 1.03
9 | COc1ccc2c(n1)c(CCNC(C)=O)cn2CCNC(=O)CCc1ccc2n1[B-](F)(F)[N+]1=C(c3ccc[nH]3)C=CC1=C2 [Azamelatonin-1-NB590] |  |  | NanoBRET Fold Response (0.1μM tracer): 0.89; NanoBRET Fold Response (1μM tracer): 1.03
10 | O=C(CCOCCOCCOCCOCCNC(=O)CCc1ccc2n1[B-](F)(F)[N+]1=C(c3ccc[nH]3)C=CC1=C2)NCCCN1CCN(C2=Nc3ccccc3Oc3ccc(Cl)cc32)CC1 [Loxapine-a-2-NB590] | 0.99 | 1.11 | 
11 | COc1ccccc1N1CCN(CCCCN2C(=O)c3ccc(CNC(=O)CCOCCOCCOCCOCCNC(=O)CCc4ccc5n4[B-](F)(F)[N+]4=C(c6ccc[nH]6)C=CC4=C5)cc3C2=O)CC1 [NAN-190-2-NB590] | 0.96 |  | 
12 | CC(C)N(CC[C@H](c1ccccc1)c1cc(CCNC(=O)c2ccc(CNC(=O)CCc3ccc4n3[B-](F)(F)[N+]3=C(c5ccc[nH]5)C=CC3=C4)cc2)ccc1O)C(C)C [Tolterodine-BZ-NB590] | 0.88 | 1.06 | 
13 | O=C(CCc1ccc2n1[B-](F)(F)[N+]1=C(c3ccc[nH]3)C=CC1=C2)NCCOCCOCCNC(=O)OCCOCCN1CCN(C2=Nc3ccccc3Sc3ccccc32)CC1 [Quetiapine-a-2-NB590] | 0.98 | 0.95 | 
14 | CN1CCN(C2=Nc3cc(Cl)ccc3Nc3ccc(CNC(=O)CCOCCOCCOCCOCCNC(=O)CCc4ccc5n4[B-](F)(F)[N+]4=C(c6ccc[nH]6)C=CC4=C5)cc32)CC1 [Clozapine-b-2-NB590] |  |  | NanoBRET Fold Response (MC2R, 0.1μM tracer): 1.02; NanoBRET Fold Response (MC2R, 1μM tracer): 1.00
15 | CC(C)N(CC[C@H](c1ccccc1)c1cc(CCNC(=O)CCOCCOCCOCCOCCNC(=O)CCc2ccc3n2[B-](F)(F)[N+]2=C(c4ccc[nH]4)C=CC2=C3)ccc1O)C(C)C [Tolterodine-2-NB590] | 1.08 | 1.10 | 
16 | Cc1cc2c(s1)Nc1ccccc1N=C2N1CCN(CCCNC(=O)CCOCCOCCOCCOCCNC(=O)CCc2ccc3n2[B-](F)(F)[N+]2=C(c4ccc[nH]4)C=CC2=C3)CC1 [Olanzapine-a-2-NB590] | 0.98 | 1.21 | 
17 | N#CN=C(NCCCOc1cccc(CN2CCCCC2)c1)NCCNC(=O)CCOCCOCCOCCOCCNC(=O)CCc1ccc2n1[B-](F)(F)[N+]1=C(c3ccc[nH]3)C=CC1=C2 [Aminopotentidine-2-NB590] | 0.97 | 0.92 | 
18 | Cc1nc2n(c(=O)c1CCN1CCC(c3noc4cc(F)ccc34)CC1)CCCC2OC(=O)NCCOCCOCCOCCOCCNC(=O)CCc1ccc2n1[B-](F)(F)[N+]1=C(c3ccc[nH]3)C=CC1=C2 (stereo not drawn) [Risperidone-2-NB590] | 1.04 | 1.06 | 
19 | CN(C)CCC=C1c2ccccc2CCc2ccc(C(=O)NCCNC(=O)CCOCCOCCOCCOCCNC(=O)CCc3ccc4n3[B-](F)(F)[N+]3=C(c5ccc[nH]5)C=CC3=C4)cc21 [Amitriptyline-b-2-NB590] |  |  | NanoBRET Fold Response (tracer at 0.1μM): 1.00; NanoBRET Fold Response (tracer at 1μM): 1.02

Reference: PMC8151276, “An Integrated Approach toward NanoBRET Tracers for Analysis of GPCR Ligand Engagement” (Molecules, 2021)
